Results taken from patent publication US8895561B2, “Compounds and methods for treating candidiasis and aspergillus infections” (Cellceutix Corporation, priority 2012, dated 2014).
Values after ≈ are worked out from the molar mass of the structure shown.

System: E. faecalis 29212
Experiment: Bacterial MIC, broth microdilution, CLSI
Type: cell-based
Conditions: Enterococcus faecalis, 29212; read-out: EF (MIC)
Method: (§1) Candida IC50s were determined by OD600 and fluorescence from vegetative cells and by MTS viability assay in the hyphal state. MICs were determined using a broth microdilution assay under standard CLSI conditions Bacteria strains: E. coli 25922 (EC), S. aureus 27660 (SA), E. faecalis 29212 (EF), P. aeruginosa 10145 (PA), and K. pneumoniae 13883 (KP). Cytotoxicity (EC50) was determined against mouse 3T3 fibroblasts, human transformed liver HepG2 cells, and human oral keratinocyte cell line, OKF6/TERT using an MTS viability assay. Candida IC50s<10 μg/mL, MICs<5 μg/mL and cytotoxicity EC50s>100 μM are indicated in green. MICs>5 μg/mL and cytotoxicity EC50s<100 μM are indicated in red. Candida IC50s (CA) were determined by OD600 and fluorescence from vegetative cells. MICs were determined using a broth microdilution assay under standard CLSI conditions Bacteria strains: E. coli 25922 (EC), S. aureus 27660 (SA), E. faecalis 29212 (EF), P. aeruginosa 10145 (PA), and K. pneumoniae 13883 (KP). Cytotoxicity (EC50) was determined against mouse 3T3 fibroblasts and human transformed liver HepG2 cells using an MTS viability assay.

| Compound | MIC [µg/mL] |
| --- | --- |
| NCCCOc1ccc(-c2ccc3c4ccc(-c5ccc(OCCCN)cc5)cc4n(CCCN)c3c2)cc1 [Compound 152] | 1.56 (≈ 2.98 µM) |
| NCCCn1c2cc(-c3cccc(N)c3)ccc2c2ccc(-c3cccc(N)c3)cc21 [Compound 153] | 12.5 (≈ 30.7 µM) |
| CCn1c2ccc(-c3cccc(N(CCN)CCN)c3)cc2c2cc(-c3cccc(N(CCN)CCN)c3)ccc21 [Compound 155] | > 50 |
| NCCN(CCN)c1cccc(-c2ccc3[nH]c4ccc(-c5cccc(N(CCN)CCN)c5)cc4c3c2)c1 [Compound 156] | > 50 |
| NCCN(CCN)Cc1cccc(-c2ccc3[nH]c4ccc(-c5cccc(CN(CCN)CCN)c5)cc4c3c2)c1 [Compound 158] | > 50 |
| N=C(N)NCCCn1c2cc(-c3ccc(CCNC(=N)N)c(CCNC(=N)N)c3)ccc2c2ccc(-c3ccc(CCNC(=N)N)c(CCNC(=N)N)c3)cc21 [Compound 160] | 3.13 (≈ 4.12 µM) |

System: S. aureus 27660
Experiment: Bacterial MIC, broth microdilution, CLSI
Type: cell-based
Conditions: Staphylococcus aureus, 27660; read-out: SA (MIC)
Method: as §1

| Compound | MIC [µg/mL] |
| --- | --- |
| NCCCOc1ccc(-c2ccc3c4ccc(-c5ccc(OCCCN)cc5)cc4n(CCCN)c3c2)cc1 [Compound 152] | 0.39 (≈ 0.746 µM) |
| NCCCn1c2cc(-c3cccc(N)c3)ccc2c2ccc(-c3cccc(N)c3)cc21 [Compound 153] | 1.56 (≈ 3.84 µM) |
| CCn1c2ccc(-c3cccc(N(CCN)CCN)c3)cc2c2cc(-c3cccc(N(CCN)CCN)c3)ccc21 [Compound 155] | 0.39 (≈ 0.709 µM) |
| NCCN(CCN)c1cccc(-c2ccc3[nH]c4ccc(-c5cccc(N(CCN)CCN)c5)cc4c3c2)c1 [Compound 156] | 1.56 (≈ 2.99 µM) |
| NCCN(CCN)Cc1cccc(-c2ccc3[nH]c4ccc(-c5cccc(CN(CCN)CCN)c5)cc4c3c2)c1 [Compound 158] | 1.56 (≈ 2.84 µM) |
| N=C(N)NCCCn1c2cc(-c3ccc(CCNC(=N)N)c(CCNC(=N)N)c3)ccc2c2ccc(-c3ccc(CCNC(=N)N)c(CCNC(=N)N)c3)cc21 [Compound 160] | 1.95 (≈ 2.57 µM) |

System: P. aeruginosa 10145
Experiment: Bacterial MIC, broth microdilution, CLSI
Type: cell-based
Conditions: Pseudomonas aeruginosa, 10145; read-out: PA (MIC)
Method: as §1

| Compound | MIC [µg/mL] |
| --- | --- |
| NCCCOc1ccc(-c2ccc3c4ccc(-c5ccc(OCCCN)cc5)cc4n(CCCN)c3c2)cc1 [Compound 152] | 3.13 (≈ 5.99 µM) |
| NCCCn1c2cc(-c3cccc(N)c3)ccc2c2ccc(-c3cccc(N)c3)cc21 [Compound 153] | 100 (≈ 246 µM) |
| CCn1c2ccc(-c3cccc(N(CCN)CCN)c3)cc2c2cc(-c3cccc(N(CCN)CCN)c3)ccc21 [Compound 155] | 12.5 (≈ 22.7 µM) |
| NCCN(CCN)c1cccc(-c2ccc3[nH]c4ccc(-c5cccc(N(CCN)CCN)c5)cc4c3c2)c1 [Compound 156] | 12.5 (≈ 24 µM) |
| NCCN(CCN)Cc1cccc(-c2ccc3[nH]c4ccc(-c5cccc(CN(CCN)CCN)c5)cc4c3c2)c1 [Compound 158] | 25 (≈ 45.5 µM) |
| N=C(N)NCCCn1c2cc(-c3ccc(CCNC(=N)N)c(CCNC(=N)N)c3)ccc2c2ccc(-c3ccc(CCNC(=N)N)c(CCNC(=N)N)c3)cc21 [Compound 160] | 6.25 (≈ 8.23 µM) |

System: E. coli 25922
Experiment: Bacterial MIC, broth microdilution, CLSI
Type: cell-based
Conditions: Escherichia coli, 25922; read-out: EC (MIC)
Method: as §1

| Compound | MIC [µg/mL] |
| --- | --- |
| NCCCOc1ccc(-c2ccc3c4ccc(-c5ccc(OCCCN)cc5)cc4n(CCCN)c3c2)cc1 [Compound 152] | 1.56 (≈ 2.98 µM) |
| NCCCn1c2cc(-c3cccc(N)c3)ccc2c2ccc(-c3cccc(N)c3)cc21 [Compound 153] | 12.5 (≈ 30.7 µM) |
| CCn1c2ccc(-c3cccc(N(CCN)CCN)c3)cc2c2cc(-c3cccc(N(CCN)CCN)c3)ccc21 [Compound 155] | 12.5 (≈ 22.7 µM) |
| NCCN(CCN)c1cccc(-c2ccc3[nH]c4ccc(-c5cccc(N(CCN)CCN)c5)cc4c3c2)c1 [Compound 156] | 1.56 (≈ 2.99 µM) |
| NCCN(CCN)Cc1cccc(-c2ccc3[nH]c4ccc(-c5cccc(CN(CCN)CCN)c5)cc4c3c2)c1 [Compound 158] | 1.56 (≈ 2.84 µM) |
| N=C(N)NCCCn1c2cc(-c3ccc(CCNC(=N)N)c(CCNC(=N)N)c3)ccc2c2ccc(-c3ccc(CCNC(=N)N)c(CCNC(=N)N)c3)cc21 [Compound 160] | 1.56 (≈ 2.06 µM) |

System: C. albicans GDH2346
Experiment: Candida IC50, vegetative cells, by OD600 and fluorescence
Type: cell-based
Conditions: Candida albicans, GDH2346; vegetative cells; read-out: CA (Candida IC50)
Method: Candida IC50s were determined by OD600 and fluorescence from vegetative cells and by MTS viability assay in the hyphal state. MICs were determined using a broth microdilution assay under standard CLSI conditions Bacteria strains: E. coli 25922 (EC), S. aureus 27660 (SA), E. faecalis 29212 (EF), P. aeruginosa 10145 (PA), and K. pneumoniae 13883 (KP). Cytotoxicity (EC50) was determined against mouse 3T3 fibroblasts, human transformed liver HepG2 cells, and human oral keratinocyte cell line, OKF6/TERT using an MTS viability assay. Candida IC50s<10 μg/mL, MICs<5 μg/mL and cytotoxicity EC50s>100 μM are indicated in green. MICs>5 μg/mL and cytotoxicity EC50s<100 μM are indicated in red. Candida IC50s (CA) were determined by OD600 and fluorescence from vegetative cells. MICs were determined using a broth microdilution assay under standard CLSI conditions Bacteria strains: E. coli 25922 (EC), S. aureus 27660 (SA), E. faecalis 29212 (EF), P. aeruginosa 10145 (PA), and K. pneumoniae 13883 (KP). Cytotoxicity (EC50) was determined against mouse 3T3 fibroblasts and human transformed liver HepG2 cells using an MTS viability assay. For determination of anti-Candida IC50s, the method was modified by using RPMI/MOPS buffer pH 6.3 and by addition of FDGlu, a substrate for the yeast enzyme exoglucanase which is secreted during cell growth. This provides a fluorescent readout for cell growth which was used in addition to the traditional optical density measure of growth. OD600 and fluorescence were determined at 24 and 48 hours and the average of all 4 reads was used for the final IC50 determination.

| Compound | IC50 [µg/mL] |
| --- | --- |
| NCCCOc1ccc(-c2ccc3c4ccc(-c5ccc(OCCCN)cc5)cc4n(CCCN)c3c2)cc1 [Compound 152] | 3.77 (≈ 7.21 µM) |
| CCn1c2ccc(-c3cccc(N(CCN)CCN)c3)cc2c2cc(-c3cccc(N(CCN)CCN)c3)ccc21 [Compound 155] | 2.63 (≈ 4.78 µM) |
| NCCN(CCN)c1cccc(-c2ccc3[nH]c4ccc(-c5cccc(N(CCN)CCN)c5)cc4c3c2)c1 [Compound 156] | 1.94 (≈ 3.72 µM) |
| NCCN(CCN)Cc1cccc(-c2ccc3[nH]c4ccc(-c5cccc(CN(CCN)CCN)c5)cc4c3c2)c1 [Compound 158] | 17.5 (≈ 31.8 µM) |
| N=C(N)NCCCn1c2cc(-c3ccc(CCNC(=N)N)c(CCNC(=N)N)c3)ccc2c2ccc(-c3ccc(CCNC(=N)N)c(CCNC(=N)N)c3)cc21 [Compound 160] | 1.48 (≈ 1.95 µM) |

System: not listed separately
Experiment: Cytotoxicity, MTS viability assay
Type: cell-based, human
Conditions: human, HepG2 cells (transformed liver); read-out: HepG2 (cytotoxicity EC50)
Method: Candida IC50s were determined by OD600 and fluorescence from vegetative cells and by MTS viability assay in the hyphal state. MICs were determined using a broth microdilution assay under standard CLSI conditions Bacteria strains: E. coli 25922 (EC), S. aureus 27660 (SA), E. faecalis 29212 (EF), P. aeruginosa 10145 (PA), and K. pneumoniae 13883 (KP). Cytotoxicity (EC50) was determined against mouse 3T3 fibroblasts, human transformed liver HepG2 cells, and human oral keratinocyte cell line, OKF6/TERT using an MTS viability assay. Candida IC50s<10 μg/mL, MICs<5 μg/mL and cytotoxicity EC50s>100 μM are indicated in green. MICs>5 μg/mL and cytotoxicity EC50s<100 μM are indicated in red.
Candida IC50s (CA) were determined by OD600 and fluorescence from vegetative cells. MICs were determined using a broth microdilution assay under standard CLSI conditions Bacteria strains: E. coli 25922 (EC), S. aureus 27660 (SA), E. faecalis 29212 (EF), P. aeruginosa 10145 (PA), and K. pneumoniae 13883 (KP). Cytotoxicity (EC50) was determined against mouse 3T3 fibroblasts and human transformed liver HepG2 cells using an MTS viability assay.
CLSI conditions Bacteria strains: clinical isolates; yeast strains: C. dubliniensis (NCPF3949), C. glabrata (ATCC 90030), C. krusei (ATCC 6258), C. parapsilosis (ATCC 22019), and C. tropicalis (ATCC 750). Cytotoxicity (EC50) was determined against mouse 3T3 fibroblasts, human transformed liver HepG2 cells, and human oral keratinocyte cell line, OKF6/TERT using an MTS viability assay.

| Compound | EC50 [µM] |
| --- | --- |
| NCCCOc1ccc(-c2ccc3c4ccc(-c5ccc(OCCCN)cc5)cc4n(CCCN)c3c2)cc1 [Compound 152] | 12 |
| NCCCn1c2cc(-c3cccc(N)c3)ccc2c2ccc(-c3cccc(N)c3)cc21 [Compound 153] | 65 |
| NCCN(CCN)c1cccc(-c2ccc3[nH]c4ccc(-c5cccc(N(CCN)CCN)c5)cc4c3c2)c1 [Compound 156] | > 1000 |
| NCCN(CCN)Cc1cccc(-c2ccc3[nH]c4ccc(-c5cccc(CN(CCN)CCN)c5)cc4c3c2)c1 [Compound 158] | 615 |
| N=C(N)NCCCn1c2cc(-c3ccc(CCNC(=N)N)c(CCNC(=N)N)c3)ccc2c2ccc(-c3ccc(CCNC(=N)N)c(CCNC(=N)N)c3)cc21 [Compound 160] | 28 |

Same assay, conditions: mouse, 3T3 fibroblasts; read-out: 3T3 (cytotoxicity EC50)

| Compound | EC50 [µM] |
| --- | --- |
| NCCCOc1ccc(-c2ccc3c4ccc(-c5ccc(OCCCN)cc5)cc4n(CCCN)c3c2)cc1 [Compound 152] | 34 |
| NCCCn1c2cc(-c3cccc(N)c3)ccc2c2ccc(-c3cccc(N)c3)cc21 [Compound 153] | 46 |
| NCCN(CCN)c1cccc(-c2ccc3[nH]c4ccc(-c5cccc(N(CCN)CCN)c5)cc4c3c2)c1 [Compound 156] | 487 |
| NCCN(CCN)Cc1cccc(-c2ccc3[nH]c4ccc(-c5cccc(CN(CCN)CCN)c5)cc4c3c2)c1 [Compound 158] | 179 |
| N=C(N)NCCCn1c2cc(-c3ccc(CCNC(=N)N)c(CCNC(=N)N)c3)ccc2c2ccc(-c3ccc(CCNC(=N)N)c(CCNC(=N)N)c3)cc21 [Compound 160] | 28 |
